Data: ChEMBL document CHEMBL1201862, “PubChem BioAssay data set” (2004)
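96-well plates; 48 h exposure; 5 concentrations. Endpoints by linear interpolation between flanking doses. Not reached: highest tested concentration assigned. GI50: concentration for 50% inhibition of growth.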 The source made the active and inactive calls. No stated cut-off is given here; in the data, active = GI50 up to about 1.1 µM and inactive = higher.

How the values were obtained:
Assay in all cases: NCI-60 cell line screen, 48 h
OVCAR-8 = tested on: OVCAR-8
A549 = tested on: A549
SR = tested on: SR
CCRF-CEM = tested on: CCRF-CEM
M14 = tested on: M14
NCI-H460 = tested on: NCI-H460
CAKI-1 = tested on: CAKI-1
OVCAR-4 = tested on: OVCAR-4
SF-295 = tested on: SF-295
HCT-15 = tested on: HCT-15
COLO 205 = tested on: COLO 205
SW-620 = tested on: SW-620
IGROV-1 = tested on: IGROV-1
M19-MEL = tested on: M19-MEL
KM-20L2 = tested on: KM-20L2
DLD-1 = tested on: DLD-1
XF498 = tested on: XF498
DMS-273 = tested on: DMS-273
SN12C = tested on: SN12C
HOP-18 = tested on: HOP-18

Measured: GI50

CC(=O)O[C@H]1CC[C@H]2[C@@H]3CCC(C(C)=O)[C@H](C(=O)O)[C@H]3CC[C@]12C (some centres undefined)
inactive: OVCAR-8 > 100 µM | A549 > 100 µM | SR > 100 µM | CCRF-CEM > 100 µM | M14 > 100 µM | NCI-H460 > 100 µM | CAKI-1 > 100 µM | OVCAR-4 > 100 µM | SF-295 > 100 µM | COLO 205 > 100 µM | SW-620 > 100 µM | IGROV-1 > 100 µM
> 100 µM: HCT-15

CC1(C)OC[C@H](C(=N)OCc2ccccc2)O1
> 100 µM: HCT-15
inactive: OVCAR-8 > 100 µM | M19-MEL > 100 µM | A549 > 100 µM | KM-20L2 > 100 µM | SR > 100 µM | DLD-1 > 100 µM | XF498 > 100 µM | DMS-273 > 100 µM | CCRF-CEM > 100 µM | M14 > 100 µM | NCI-H460 > 100 µM | CAKI-1 > 100 µM | OVCAR-4 > 100 µM | SF-295 > 100 µM | SN12C > 100 µM | COLO 205 > 100 µM | SW-620 > 100 µM | IGROV-1 > 100 µM

CCCCC(CC)C(=O)Oc1ccc(C(=O)c2ccccc2)c(O)c1 (centres undefined)
40.1 µM: HCT-15
inactive: OVCAR-8 44.9 µM | A549 46.8 µM | CCRF-CEM 43.6 µM | M14 38.5 µM | NCI-H460 35 µM | CAKI-1 43.5 µM | OVCAR-4 31 µM | SF-295 29.4 µM | SN12C 44.4 µM | COLO 205 61.2 µM | SW-620 56.4 µM | IGROV-1 55.7 µM

O=C(NN1C(=O)CSC1c1ccc(C(F)(F)F)cc1)c1ccncc1 (centres undefined)
> 100 µM: HCT-15
inactive: OVCAR-8 > 100 µM | M19-MEL > 100 µM | A549 > 100 µM | KM-20L2 > 100 µM | DLD-1 > 100 µM | XF498 > 100 µM | DMS-273 > 100 µM | CCRF-CEM > 100 µM | NCI-H460 > 100 µM | CAKI-1 > 100 µM | OVCAR-4 > 100 µM | SF-295 > 100 µM | SN12C > 100 µM | SW-620 > 100 µM | IGROV-1 > 100 µM | HOP-18 > 100 µM

O=c1oc2ccccc2n1P(=O)(Oc1ccc(Cl)cc1)n1c(=O)oc2ccccc21
inactive: OVCAR-8 > 100 µM | M19-MEL > 100 µM | A549 > 100 µM | KM-20L2 > 100 µM | SR > 100 µM | DLD-1 > 100 µM | DMS-273 78.9 µM | CCRF-CEM 18.5 µM | CAKI-1 > 100 µM | OVCAR-4 > 100 µM | SF-295 93.8 µM | SN12C > 100 µM | COLO 205 > 100 µM | SW-620 > 100 µM | IGROV-1 > 100 µM | HOP-18 > 100 µM

CCCCCCCCCCCCCCCc1nnc(S)[nH]1
48 µM: HCT-15
inactive: M19-MEL > 100 µM | SR 29.6 µM | DLD-1 > 10 µM | XF498 > 100 µM | CCRF-CEM 51.3 µM | M14 > 100 µM | NCI-H460 > 100 µM | OVCAR-4 46.1 µM | SN12C > 100 µM

Nc1n[nH]c2c1Cc1c(n(Cc3ccc(Cl)cc3)c3ccccc13)C(=O)N2
inactive: OVCAR-8 16.5 µM | A549 17.8 µM | SR 6.11 µM | CCRF-CEM 8.38 µM | M14 13.2 µM | NCI-H460 14 µM | CAKI-1 11.4 µM | OVCAR-4 13.8 µM | SF-295 17.3 µM | SN12C 14.5 µM | COLO 205 11.5 µM | SW-620 8.47 µM | IGROV-1 12.5 µM
4.12 µM: HCT-15

C=C1CC[C@@H](Br)C(C)(C)[C@]12CCC(C)(O)C(Cl)C2 (some centres undefined)
inactive: OVCAR-8 18.7 µM | M19-MEL 18.8 µM | A549 20 µM | KM-20L2 18.3 µM | DLD-1 17.5 µM | DMS-273 18.8 µM | CCRF-CEM 24.2 µM | NCI-H460 17 µM | CAKI-1 15.8 µM | SF-295 20.6 µM | SN12C 16.4 µM | COLO 205 16 µM | SW-620 14.2 µM | IGROV-1 23.1 µM | HOP-18 18.8 µM
16 µM: HCT-15

CCOC(=O)CCc1c(C)c2c(O)cc(O)cc2oc1=O
inactive: OVCAR-8 > 100 µM | M19-MEL > 100 µM | A549 > 100 µM | KM-20L2 > 100 µM | DLD-1 > 100 µM | XF498 > 100 µM | DMS-273 > 100 µM | CCRF-CEM 26 µM | NCI-H460 > 100 µM | CAKI-1 > 100 µM | OVCAR-4 > 100 µM | SF-295 > 68.9 µM | SN12C > 100 µM | COLO 205 > 100 µM | SW-620 > 100 µM | IGROV-1 > 100 µM | HOP-18 > 80.9 µM
99.1 µM: HCT-15

Nc1c(S(=O)(=O)O)cc(S(=O)(=O)O)c2ccc(/N=N/c3ccc(/C=C/c4ccc(/N=N/c5ccc6c(S(=O)(=O)O)cc(S(=O)(=O)O)c(N)c6c5O)cc4S(=O)(=O)O)c(S(=O)(=O)O)c3)c(O)c12
> 73.5 µM: HCT-15
inactive: OVCAR-8 > 100 µM | M19-MEL > 100 µM | A549 75 µM | KM-20L2 79.4 µM | DLD-1 > 100 µM | XF498 > 46.6 µM | DMS-273 > 100 µM | CCRF-CEM > 100 µM | NCI-H460 > 92.7 µM | OVCAR-4 > 57.9 µM | SF-295 > 100 µM | SN12C > 100 µM | COLO 205 > 100 µM | SW-620 > 100 µM | IGROV-1 90.2 µM | HOP-18 > 100 µM

CCOC(=O)/C=C1/C(CCCOCc2ccccc2)C2CCCC23CC2(CCN13)OCCO2 (centres undefined)
20.4 µM: HCT-15
inactive: OVCAR-8 24.8 µM | M19-MEL 19.6 µM | A549 18.9 µM | KM-20L2 22.3 µM | DLD-1 19 µM | XF498 12.3 µM | DMS-273 16.8 µM | CCRF-CEM 19.5 µM | NCI-H460 18.7 µM | OVCAR-4 24.3 µM | SF-295 23.6 µM | SN12C 25.5 µM | COLO 205 19.1 µM | SW-620 33.9 µM | IGROV-1 24.7 µM | HOP-18 21.3 µM

CC1=C(SCCO)C(=O)c2ccccc2C1=O
inactive: OVCAR-8 12.4 µM | A549 15.9 µM | SR 3.21 µM | CCRF-CEM 1.82 µM | M14 14.3 µM | NCI-H460 13.2 µM | CAKI-1 14.9 µM | OVCAR-4 3.31 µM | SF-295 17.2 µM | SN12C 15.6 µM | COLO 205 11.1 µM | SW-620 12.2 µM | IGROV-1 14.2 µM
7.35 µM: HCT-15
